In US7034056B2, “Aryl and biaryl compounds having MCH modulatory activity” (Pharmacopeia Drug Discovery, inc., priority 2001, dated 2006) one finds Ki data, which are given here for 38 compounds.

The experiment addresses T1, hMCHR (MCH receptor) (Homo sapiens, UniProt Q99705).
T1 construct: (or internally produced); host or cells: CHO (Chinese hamster ovary) cells, membrane preparation
The experiment in a line: MCH Assay PCOP Protocol ([125I]-MCH SPA binding to hMCHR-CHO membranes). Particulars: [125I]-MCH SPA binding, hMCHR-CHO membranes; Ki class ranges; read-out: Activity (range of Ki). The method in brief:
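SPA binding with 10 μg hMCHR-CHO membranes and WGA-SPA beads in 25 mM HEPES pH 7.4, 10 mM NaCl, 10 mM MgCl2, 5 mM MnCl2, 0.1% BSA.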

T1 sequence (Q99705 whole entry): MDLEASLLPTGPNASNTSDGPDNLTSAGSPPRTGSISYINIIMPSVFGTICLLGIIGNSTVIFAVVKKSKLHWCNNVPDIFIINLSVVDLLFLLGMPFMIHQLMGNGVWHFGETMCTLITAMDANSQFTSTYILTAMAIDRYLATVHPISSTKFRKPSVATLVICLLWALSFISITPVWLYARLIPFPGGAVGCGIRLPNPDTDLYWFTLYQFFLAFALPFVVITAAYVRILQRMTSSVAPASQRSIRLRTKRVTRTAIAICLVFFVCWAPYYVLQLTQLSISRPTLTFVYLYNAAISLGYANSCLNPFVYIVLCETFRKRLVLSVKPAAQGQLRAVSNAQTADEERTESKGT

As a reminder, the Ki is the equilibrium dissociation constant of an inhibitor or competing ligand from its target. Regarding `CC1CCCCN1CCC(CNC(=O)c1cc(C(F)(F)F)cc(C(F)(F)F)c1)c1ccc(Cl)c(Cl)c1` (centres unmarked) [Example 419], the Ki fell in the range of 501 to 2500 nM.
`O=C(NCC(CCNC1c2ccccc2CC1O)c1ccc(Cl)c(Cl)c1)c1cc(C(F)(F)F)cc(C(F)(F)F)c1` (centres unmarked) [Example 420]: the Ki lay within 501 to 2500 nM.
Under `COc1cc(CN(C)CCC(CNC(=O)Nc2cc(C(F)(F)F)cc(C(F)(F)F)c2)c2ccc(Cl)c(Cl)c2)cc(OC)c1OC` (centres unmarked) [Example 421] stands 51 to 500 nM.
For `O=C(NCC(CCN1CCCC1)c1ccc(Cl)c(Cl)c1)Nc1cc(C(F)(F)F)cc(C(F)(F)F)c1` (centres unmarked) [Example 422], the Ki fell in the range of 51 to 500 nM.
With `CCN1CCCC1CNCCC(CNC(=O)Nc1cc(C(F)(F)F)cc(C(F)(F)F)c1)c1ccc(Cl)c(Cl)c1` (centres unmarked) [Example 423] the figure was 51 to 500 nM; with `CCCN(CC)CCC(CNC(=O)Nc1cc(C(F)(F)F)cc(C(F)(F)F)c1)c1ccc(Cl)c(Cl)c1` (centres unmarked) [Example 424], 501 to 2500 nM; with `CN(C)CCCNCCC(CNC(=O)Nc1cc(C(F)(F)F)cc(C(F)(F)F)c1)c1ccc(Cl)c(Cl)c1` (centres unmarked) [Example 425], 501 to 2500 nM.
Consider `O=C(NCC(CCNCCc1ccc(O)cc1)c1ccc(Cl)c(Cl)c1)Nc1cc(C(F)(F)F)cc(C(F)(F)F)c1` (centres unmarked) [Example 426], for which the Ki lay within 501 to 2500 nM.
Consider `O=C(NCC(CCN1CCC(O)C1)c1ccc(Cl)c(Cl)c1)Nc1cc(C(F)(F)F)cc(C(F)(F)F)c1` (centres unmarked) [Example 427], for which the Ki lay in the range of 501 to 2500 nM.
Under `O=C(NCC(CCNCCN1CCOCC1)c1ccc(Cl)c(Cl)c1)Nc1cc(C(F)(F)F)cc(C(F)(F)F)c1` (centres unmarked) [Example 428] stands 501 to 2500 nM; under `O=C(NCC(CCN1CCC(CN2CCCCC2)CC1)c1ccc(Cl)c(Cl)c1)Nc1cc(C(F)(F)F)cc(C(F)(F)F)c1` (centres unmarked) [Example 429], 501 to 2500 nM; under `O=C(NCC(CCN1CCCC1CN1CCCC1)c1ccc(Cl)c(Cl)c1)Nc1cc(C(F)(F)F)cc(C(F)(F)F)c1` (centres unmarked) [Example 430], 501 to 2500 nM.
Under `O=C(NCC(CCNCC1CCCO1)c1ccc(Cl)c(Cl)c1)Nc1cc(C(F)(F)F)cc(C(F)(F)F)c1` (centres unmarked) [Example 431] stands 501 to 2500 nM; under `O=C(NCC(CCN1CCC(CO)C1)c1ccc(Cl)c(Cl)c1)Nc1cc(C(F)(F)F)cc(C(F)(F)F)c1` (centres unmarked) [Example 432], 501 to 2500 nM; under `CCN(CC)CCC(CNC(=O)Nc1cc(C(F)(F)F)cc(C(F)(F)F)c1)c1ccc(Cl)c(Cl)c1` (centres unmarked) [Example 433], 501 to 2500 nM.
As to `COc1ccc2[nH]cc(CCNCCC(CNC(=O)Nc3cc(C(F)(F)F)cc(C(F)(F)F)c3)c3ccc(Cl)c(Cl)c3)c2c1` (centres unmarked) [Example 434], the Ki was in the range of 501 to 2500 nM.
Regarding `CCN(CCC(CNC(=O)Nc1cc(C(F)(F)F)cc(C(F)(F)F)c1)c1ccc(Cl)c(Cl)c1)Cc1ccncc1` (centres unmarked) [Example 435], the Ki lay in the range of 501 to 2500 nM.
Regarding `CS(=O)(=O)c1ccc(CNCCC(CNC(=O)Nc2cc(C(F)(F)F)cc(C(F)(F)F)c2)c2ccc(Cl)c(Cl)c2)cc1` (centres unmarked) [Example 436], the Ki was in the range of 501 to 2500 nM.
Under `COc1ccc2c(CCNCCC(CNC(=O)Nc3cc(C(F)(F)F)cc(C(F)(F)F)c3)c3ccc(Cl)c(Cl)c3)c[nH]c2c1` (centres unmarked) [Example 437] stands 501 to 2500 nM; under `CC(Cc1c[nH]c2ccccc12)NCCC(CNC(=O)Nc1cc(C(F)(F)F)cc(C(F)(F)F)c1)c1ccc(Cl)c(Cl)c1` (centres unmarked) [Example 438], 501 to 2500 nM.
With `CC(Cc1c[nH]c2ccc(F)cc12)NCCC(CNC(=O)Nc1cc(C(F)(F)F)cc(C(F)(F)F)c1)c1ccc(Cl)c(Cl)c1` (centres unmarked) [Example 439] the figure was 501 to 2500 nM; with `CCCCN(CCC(CNC(=O)Nc1cc(C(F)(F)F)cc(C(F)(F)F)c1)c1ccc(Cl)c(Cl)c1)C1CC1` (centres unmarked) [Example 440], 501 to 2500 nM; with `COCC1CCCN1CCC(CNC(=O)Nc1cc(C(F)(F)F)cc(C(F)(F)F)c1)c1ccc(Cl)c(Cl)c1` (centres unmarked) [Example 441], 501 to 2500 nM.
With `Cc1ccc(C(CCN2CCC(N3CCCCC3)CC2)CNC(=O)Nc2cc(C(F)(F)F)cc(C(F)(F)F)c2)cc1` (centres unmarked) [Example 443] the figure was 51 to 500 nM; with `O=C(NCC(CCN1CCCCC1)c1ccc(Cl)c(Cl)c1)Nc1cc(C(F)(F)F)cc(C(F)(F)F)c1` (centres unmarked) [Example 444], 51 to 500 nM; with `Cc1ccc(C(CCN2CCCCC2)CNC(=O)Nc2cc(C(F)(F)F)cc(C(F)(F)F)c2)cc1` (centres unmarked) [Example 445], 501 to 2500 nM.
Turning to `O=C(NCC(CCN1CCCCC1)c1ccc(Cl)c(Cl)c1)c1cc(Cl)cc(Cl)c1` (centres unmarked) [Example 446], the Ki lay within 501 to 2500 nM.
Take `O=C(NCC(CCN1CCCCC1)c1ccc(Cl)c(Cl)c1)c1cccc(Cl)c1` (centres unmarked) [Example 447]: the inhibition constant (Ki) lay within 501 to 2500 nM.
Under `O=C(Cc1ccc(Cl)c(Cl)c1)NCC(CCN1CCC(N2CCCCC2)CC1)c1ccc(Cl)c(Cl)c1` (centres unmarked) [Example 448] stands 501 to 2500 nM.
With `O=C(NCC(CCN1CCCCC1)c1ccc(Cl)c(Cl)c1)c1cccc(C(F)(F)F)c1` (centres unmarked) [Example 449] the figure was 501 to 2500 nM; with `Cc1ccc(C(=O)NCC(CCN2CCCCC2)c2ccc(Cl)c(Cl)c2)cc1` (centres unmarked) [Example 450], 501 to 2500 nM.
On to `Cc1ccc(C(CCN2CCC(N3CCCCC3)CC2)CNC(=O)Cc2ccc(Cl)c(Cl)c2)cc1` (centres unmarked) [Example 451], for which the inhibitory constant (Ki) was in the range of 501 to 2500 nM.
With `O=C(NCC(CCN1CCC(N2CCCCC2)CC1)c1ccc(Cl)c(Cl)c1)c1cc(Cl)cc(Cl)c1` (centres unmarked) [Example 452] the figure was 501 to 2500 nM; with `N#Cc1cccc(C(=O)NCC(CCN2CCCCC2)c2ccc(Cl)c(Cl)c2)c1` (centres unmarked) [Example 453], 501 to 2500 nM; with `Cc1ccc(C(CCN2CCCCC2)CNC(=O)c2cc(C(F)(F)F)cc(C(F)(F)F)c2)cc1` (centres unmarked) [Example 454], 501 to 2500 nM.
For the compound `O=C(NCC(CCN1CCCCC1)c1ccc(Cl)c(Cl)c1)c1ccc(F)cc1` (centres unmarked) [Example 455], the Ki was in the range of 501 to 2500 nM.
Under `Cc1cc(C)cc(C(=O)NCC(CCN2CCCCC2)c2ccc(Cl)c(Cl)c2)c1` (centres unmarked) [Example 456] stands 501 to 2500 nM; under `O=C(NCc1cc(C(F)(F)F)cc(C(F)(F)F)c1)C(CCN1CCC(N2CCCCC2)CC1)c1ccc(Cl)c(Cl)c1` (centres unmarked) [Example 457], 501 to 2500 nM.
